The values that follow come from patent publication US9394282B2, “Pyrazole carboxamides as Janus kinase inhibitors” (Merck Sharp & Dohme Corp., priority 2011, dated 2016).

pIC50: −log10 of the molar value.

Sequence of JAK2 (O60674 849-1124): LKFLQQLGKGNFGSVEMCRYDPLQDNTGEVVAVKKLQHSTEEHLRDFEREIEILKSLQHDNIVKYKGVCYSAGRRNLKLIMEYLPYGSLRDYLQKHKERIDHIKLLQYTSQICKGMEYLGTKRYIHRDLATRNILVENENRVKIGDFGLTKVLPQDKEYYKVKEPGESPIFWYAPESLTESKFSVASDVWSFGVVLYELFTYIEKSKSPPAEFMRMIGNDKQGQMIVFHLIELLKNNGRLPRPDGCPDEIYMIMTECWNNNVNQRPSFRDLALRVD

The target of one assay is JAK2 (Homo sapiens (Human), UniProt O60674). Description: Jak biochemical HTRF assay, JAK2. Particulars: recombinant purified GST-tagged catalytic domain; HTRF format; [ATP] 8.5 μM. The text has this:
Jak Biochemical HTRF Assay Protocol
Subsequent reagent additions employed an Agilent Bravo.
For `CN1CCN(CCOC(=O)N2CC[C@@H](n3cc(C(N)=O)c(Nc4ccc(F)cc4)n3)[C@H](C#N)C2)CC1` (racemic) [Example 5-24, 2-(4-methylpiperazin-1-yl)ethyl (3R,4R and 3S,4S)-4-{4-carbamoyl-3-[(4-fluorophenyl)amino]-1H-pyrazol-1-yl}-3-cyanopiperidine-1-carboxylate], the negative logarithm of the IC50 (pIC50) (as a rule, −log10 of the IC50, conventionally taken in molar units) is 5.97.
Same read-out and setting: for `N#C[C@@H]1CCN(C(=O)OCCF)CC1n1cc(C(N)=O)c(Nc2ccc(F)cc2)n1` (mixture of isomers) [Example 5-79, 2-fluoroethyl (3S,4R and 3R,4S)-3-{4-carbamoyl-3-[(4-fluorophenyl)amino]-1H-pyrazol-1-yl}-4-cyanopiperidine-1-carboxylate] the value was 7.25; for `CC(C)(C#N)COC(=O)N1CC[C@@H](C#N)C(n2cc(C(N)=O)c(Nc3ccc(F)cc3)n2)C1` (mixture of isomers) [Example 5-69, 2-Cyano-2-methylpropyl (3S,4R and 3R,4S)-3-{4-carbamoyl-3-[(4-fluorophenyl)amino]-1H-pyrazol-1-yl}-4-cyanopiperidine-1-carboxylate], 7.39.
For `N#C[C@@H]1CN(C(=O)OCc2ccccc2)CC[C@H]1n1cc(C(N)=O)c(Nc2ccc(F)cc2)n1` (racemic) [Example 5-12, benzyl (3R,4R and 3S,4S)-4-{4-carbamoyl-3-[(4-fluorophenyl)amino]-1H-pyrazol-1-yl}-3-cyanopiperidine-1-carboxylate], the pIC50 is 6.43.
Same read-out and setting: for `N#C[C@@H]1CCN(CC2CCC2)C[C@H]1n1cc(C(N)=O)c(Nc2ccc(F)cc2)n1` (racemic) [Example 6-12, 1-[(3S,4R and 3R,4S)-4-cyano-1-(cyclobutylmethyl)piperidin-3-yl]-3-[(4-fluorophenyl)amino]-1H-pyrazole-4-carboxamide] the value was 7.48; for `CC(C)COC(=O)N1CC[C@H](n2cc(C(N)=O)c(Nc3ccc(F)cc3)n2)[C@H](C#N)C1` (racemic) [Example 5-56, 2-methylpropyl (3R,4S and 3S,4R)-4-{4-carbamoyl-3-[(4-fluorophenyl)amino]-1H-pyrazol-1-yl}-3-cyanopiperidine-1-carboxylate], below 5.83.
On the same count and under the same terms, for `N#C[C@@H]1CCOC[C@H]1n1cc(C(N)=O)c(Nc2ccc(C(F)F)nc2)n1` (single isomer, unassigned) [Example 9-33, 1-[(3S,4R or 3R,4S)-4-cyanotetrahydro-2H-pyran-3-yl]-3-{[6-(difluoromethyl)pyridin-3-yl]amino}-1H-pyrazole-4-carboxamide] the value was 8.52; for `CCn1ccnc1CN1CC[C@@H](C#N)[C@H](n2cc(C(N)=O)c(Nc3ccc(F)cc3)n2)C1` (racemic) [Example 6-19, 1-{(3S,4R and 3R,4S)-4-cyano-1-[(1-ethyl-1H-imidazol-2-yl)methyl]piperidin-3-yl}-3-[(4-fluorophenyl)amino]-1H-pyrazole-4-carboxamide], 7.96.
Take `C#CCCOC(=O)N1CC[C@@H](n2cc(C(N)=O)c(Nc3ccc(F)cc3)n2)[C@H](C#N)C1` (racemic) [Example 5-34, but-3-yn-1-yl (3R,4R and 3S,4S)-4-{4-carbamoyl-3-[(4-fluorophenyl)amino]-1H-pyrazol-1-yl}-3-cyanopiperidine-1-carboxylate]: the pIC50 was 6.81.
Still for that read-out and setting: for `N#C[C@@H]1CS(=O)(=O)CC1n1cc(C(N)=O)c(Nc2ccc(F)cc2)n1` (mixture of isomers) [Example 8-6, 1-((3S,4R and 3R,4S)-4-cyano-1,1-dioxidotetrahydrothiophen-3-yl)-3-((4-fluorophenyl)amino)-1H-pyrazole-4-carboxamide] the value was 7.62; for `N#C[C@H]1CS(=O)(=O)CC1n1cc(C(N)=O)c(Nc2ccc(F)cc2)n1` (mixture of isomers) [Example 8-5, 1-((3S,4S and 3R,4R)-4-cyano-1,1-dioxidotetrahydrothiophen-3-yl)-3-((4-fluorophenyl)amino)-1H-pyrazole-4-carboxamide], 7.49.
On the same count and under the same terms, for `N#C[C@H]1CCOC[C@@H]1n1cc(C(N)=O)c(Nc2ccc(Cl)nc2)n1` (single isomer, unassigned) [Example 9-27, 3-[(6-chloropyridin-3-yl)amino]-1-[(3R,4S or 3S,4R)-4-cyanotetrahydro-2H-pyran-3-yl]-1H-pyrazole-4-carboxamide] the value was 6.87.
Same read-out and setting: for `N#C[C@@H]1CS(=O)(=O)CC1n1cc(C(N)=O)c(Nc2ccc(S(=O)(=O)C(F)(F)F)cc2)n1` (mixture of isomers) [Example 8-7, 1-((3S,4R and 3R,4S)-4-cyano-1,1-dioxidotetrahydrothiophen-3-yl)-3-((4-((trifluoromethyl)sulfonyl)phenyl)amino)-1H-pyrazole-4-carboxamide] the value was 7.82; for `CC(C)(C)OC(=O)N1CCC(n2cc(C(N)=O)c(Nc3ccc(F)cc3)n2)[C@@H](C#N)C1` (mixture of isomers) [Example 2-3, (3S,4S and 3R,4R)-tert-butyl 4-(4-carbamoyl-3-((4-fluorophenyl)amino)-1H-pyrazol-1-yl)-3-cyanopiperidine-1-carboxylate], 6.44.
Take `CC1(COC(=O)N2CC[C@@H](C#N)C(n3cc(C(N)=O)c(Nc4ccc(F)cc4)n3)C2)COC1` (mixture of isomers) [Example 5-90, (3-methyloxetan-3-yl)methyl (3S,4R and 3R,4S)-3-{4-carbamoyl-3-[(4-fluorophenyl)amino]-1H-pyrazol-1-yl}-4-cyanopiperidine-1-carboxylate]: the pIC50 was 7.02.
Still for that read-out and setting: under `CC1(COC(=O)N2CC[C@@H](n3cc(C(N)=O)c(Nc4ccc(F)cc4)n3)[C@H](C#N)C2)COC1` (racemic) [Example 5-33, (3-methyloxetan-3-yl)methyl (3R,4R and 3S,4S)-4-{4-carbamoyl-3-[(4-fluorophenyl)amino]-1H-pyrazol-1-yl}-3-cyanopiperidine-1-carboxylate] stands 6.38; under `CC(C)(C)OC(=O)N1CCC(n2cc(C(N)=O)c(Nc3ccc(F)cc3)n2)[C@H](C#N)C1` (mixture of isomers) [Example 2-2, (3R,4S and 3S,4R)-tert-butyl 4-(4-carbamoyl-3-((4-fluorophenyl)amino)-1H-pyrazol-1-yl)-3-cyanopiperidine-1-carboxylate], 6.08.
With `N#C[C@@H]1CN(C(=O)OCc2ccccc2)CC[C@@H]1n1cc(C(N)=O)c(Nc2ccc(F)cc2)n1` (racemic) [Example 5-52, benzyl (3R,4S and 3S,4R)-4-{4-carbamoyl-3-[(4-fluorophenyl)amino]-1H-pyrazol-1-yl}-3-cyanopiperidine-1-carboxylate], the pIC50 is below 5.83.
On the same count and under the same terms, under `N#C[C@@H]1CCN(Cc2cc(F)ccn2)C[C@H]1n1cc(C(N)=O)c(Nc2ccc(F)cc2)n1` (racemic) [Example 6-7, 1-{(3S,4R and 3R,4S)-4-cyano-1-[(4-fluoropyridin-2-yl)methyl]piperidin-3-yl}-3-[(4-fluorophenyl)amino]-1H-pyrazole-4-carboxamide] stands 7.33; under `N#C[C@@H]1CCOC[C@H]1n1cc(C(N)=O)c(Nc2ccc(Cl)nc2)n1` (single isomer, unassigned) [Example 9-28, 3-[(6-chloropyridin-3-yl)amino]-1-[(3S,4R or 3R,4S)-4-cyanotetrahydro-2H-pyran-3-yl]-1H-pyrazole-4-carboxamide], 8.40.
The same measure, in the same setting: for `N#C[C@@H]1CN(C(=O)OC2CCCCC2)CC[C@@H]1n1cc(C(N)=O)c(Nc2ccc(F)cc2)n1` (racemic) [Example 5-61, cyclohexyl (3R,4S and 3S,4R)-4-{4-carbamoyl-3-[(4-fluorophenyl)amino]-1H-pyrazol-1-yl}-3-cyanopiperidine-1-carboxylate] the value was below 5.83; for `COCCOC(=O)N1CC[C@@H](C#N)C(n2cc(C(N)=O)c(Nc3ccc(F)cc3)n2)C1` (mixture of isomers) [Example 5-83, 2-methoxyethyl (3S,4R and 3R,4S)-3-{4-carbamoyl-3-[(4-fluorophenyl)amino]-1H-pyrazol-1-yl}-4-cyanopiperidine-1-carboxylate], 6.92.
Same read-out and setting: under `N#C[C@@H]1CN(Cc2cscn2)CC[C@H]1n1cc(C(N)=O)c(Nc2ccc(F)cc2)n1` (racemic) [Example 6-27, 1-[(3R,4R and 3S,4S)-3-cyano-1-(1,3-thiazol-4-ylmethyl)piperidin-4-yl]-3-[(4-fluorophenyl)amino]-1H-pyrazole-4-carboxamide] stands 7.43.
On to `N#C[C@H]1CCOC[C@@H]1n1cc(C(N)=O)c(Nc2ccc(C(F)F)nc2)n1` (single isomer, unassigned) [Example 9-32, 1-[(3R,4S or 3S,4R)-4-cyanotetrahydro-2H-pyran-3-yl]-3-{[6-(difluoromethyl)pyridin-3-yl]amino}-1H-pyrazole-4-carboxamide], for which the pIC50 was 6.87.
As for `CC(C)COC(=O)N1CC[C@@H](n2cc(C(N)=O)c(Nc3ccc(F)cc3)n2)[C@H](C#N)C1` (racemic) [Example 5-10, 2-methylpropyl (3R,4R and 3S,4S)-4-{4-carbamoyl-3-[(4-fluorophenyl)amino]-1H-pyrazol-1-yl}-3-cyanopiperidine-1-carboxylate], the pIC50 is 6.12.

Still in this assay, the particulars now being: recombinant purified GST-tagged catalytic domain; HTRF format; [ATP] […].
Consider `Cn1nccc1CN1CC[C@@H](n2cc(C(N)=O)c(Nc3ccc(F)cc3)n2)[C@H](C#N)C1` (mixture of isomers) [Example 6-32, 1-{(3R,4R and 3S,4S)-3-cyano-1-[(1-methyl-1H-pyrazol-5-yl)methyl]piperidin 4-yl}-3-[(4-fluorophenyl)amino]-1H-pyrazole-4-carboxamide], for which the pIC50 was 7.46.
For the compound `N#C[C@@H]1CS(=O)(=O)C[C@H]1n1cc(C(N)=O)c(Nc2ccc(F)cc2)n1` (single isomer, unassigned) [Example 12-1, 1-((3S,4R or 3R,4S)-4-Cyano-1,1-dioxidotetrahydrothiophen-3-yl)-3-((4-fluorophenyl)amino)-1H-pyrazole-4-carboxamide], the pIC50 is below 5.83.
On the same count and under the same terms, under `N#C[C@@H]1CS(=O)(=O)C[C@H]1n1cc(C(N)=O)c(Nc2ccc(F)cc2)n1` (single isomer, unassigned) [Example 12-2, 1-((3S,4R or 3R,4S)-4-Cyano-1,1-dioxidotetrahydrothiophen-3-yl)-3-((4-fluorophenyl)amino)-1H-pyrazole-4-carboxamide] stands 7.80.
